From PMC9394474 (Viruses, 2022)
Several values for one entry are separate records, joined by “and”; a condition that tells them apart may be missing. Equal entries are not always repeated. Where two headings read alike, the source gives them in different places. Ends that are not written are not given here. Peptide text beside a SMILES is read from it.

Molecular target: human hisTRIM7-PRYSPRY (Homo sapiens, UniProt Q9C029)
Assay: ITC binding to human TRIM7 PRYSPRY (wild type)

Compound | Kd | Kd (KD, ITC, one-site model, 15 °C, 50 mM phosphate pH 6.5, 1 mM DTT, TRIM7 500 µM, ligand 100 µM (peptide 50 µM), representative trace and fit)
CC(=O)N[C@@H](CC(C)C)C(=O)N[C@@H](CC(C)C)C(=O)N[C@@H](CCC(N)=O)C(=O)O [Ac-LLQ] (Ac-Leu-Leu-Gln-OH) | 38.7 ± 5.16 µM | 
CC(C)C[C@H](N)C(=O)N[C@@H](CCC(N)=O)C(=O)O [LQ] (H-Leu-Gln-OH) | 201 ± 30 µM | 
AAAAALQ [polyA-LQ] | 8.92 µM and 8 µM | 
AIEALFQ [AIEALFQ] | 17 ± 4.3 µM | 
DNIKKKLDTYLQ [rbGYG322-333] |  | 21 ± 1.8 µM
